These results are taken from patent US20100215618A1, “NOVEL COMPOUNDS - 644” (Arrow Therapeutics Limited, priority 2009, published 2010).

Where two headings read alike, the source gives them in different places.

Assay [1] has as its system HCV genotype 1a replicon cells Htat2ANeo. Description: 1a Replicon Assay (cell-based anti-NS5a ELISA). The settings on record: Hepatitis C virus, 72 h. A digest of the protocol: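 HCV 1a Htat2ANeo replicon cells (Et2AN control cells) exposed to compound for 72 h at 37° C without G418/blasticidin. NS5a quantified by cell-based ELISA (anti-NS5a, HRP/OPD, A490); IC50 from percentage reduction versus untreated control. Cytotoxicity TD50 by Cell Titre Blue fluorescence (ex 570/em 590 nm) versus DMSO controls.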

The test system of assay [2] is HCV replicon cells Huh 9B (genotype 1b). Description: 1b Replicon Assay (luciferase readout). Type of assay: cell-based. The conditions noted are these: Hepatitis C virus, Huh 9B replicon cells, 72 h, luciferase activity. Background: A replicon is a self-replicating genome or part of one, used to study replication in cells.
[3] abbreviates: read-out: pIC50 1a Replicon (converted).
Setting [4] is: read-out: pIC50 1b Replicon (converted).

Turning to `CC(C)(C)OC(=O)N[C@@H](C(=O)N1CCC[C@H]1c1ncc(-c2ccc(-c3ccc(C(=O)Nc4ccc(CN5CCS(=O)(=O)CC5)cc4)cc3)cc2)[nH]1)c1ccccc1` [Example 2, Tert-butyl N-[(1R)-2-[(2S)-2-[5-[4-[4-[[4-[(1,1-dioxo-1,4-thiazinan-4-yl)methyl]phenyl]carbamoyl]phenyl]phenyl]-1H-imidazol-2-yl]pyrrolidin-1-yl]-2-oxo-1-phenyl-ethyl]carbamate], the IC50 in assay [1] (read-out: HCV IC50 Elisa 1a) is 56 nM; in assay [1] (setting [3]), 56.2 nM; in assay [2] (read-out: HCV IC50 1b Replicon), 0.02 nM; in assay [2] (setting [4]), 0.0204 nM.

For `COC(=O)N[C@H](C(=O)N1CCC[C@H]1c1ncc(-c2ccc(-c3ccc(C(=O)Nc4ccc(CN5CCS(=O)(=O)CC5)cc4)cc3)cc2)[nH]1)C(C)C` [Example 3, Methyl N-[(1S)-1-[(2S)-2-[5-[4-[4-[[4-[(1,1-dioxo-1,4-thiazinan-4-yl)methyl]phenyl]carbamoyl]phenyl]phenyl]-1H-imidazol-2-yl]pyrrolidine-1-carbonyl]-2-methyl-propyl]carbamate], the IC50 was 6.46 nM in assay [1] (read-out: HCV IC50 Elisa 1a), 6.46 nM in assay [1] (setting [3]), 0.34 nM in assay [2] (read-out: HCV IC50 1b Replicon) and 0.339 nM in assay [2] (setting [4]).

Regarding `COC(=O)N[C@H](C(=O)N1CCC[C@H]1c1ncc(-c2ccc(-c3ccc(C(=O)Nc4ccc(CN5CCS(=O)(=O)CC5)cc4)cc3)cc2)[nH]1)C(C)(C)C` [Example 5, Methyl N-[(1S)-1-[(2S)-2-[5-[4-[4-[[4-[(1,1-dioxo-1,4-thiazinan-4-yl)methyl]phenyl]carbamoyl]phenyl]phenyl]-1H-imidazol-2-yl]pyrrolidine-1-carbonyl]-2,2-dimethyl-propyl]carbamate], the IC50 in assay [1] (read-out: HCV IC50 Elisa 1a) was 33.1 nM; in assay [1] (setting [3]), 33.1 nM; in assay [2] (read-out: HCV IC50 1b Replicon), 0.73 nM; in assay [2] (setting [4]), 0.741 nM.

As to `COC(=O)N[C@H](C(=O)N1CCC[C@H]1c1ncc(-c2ccc(-c3ccc(C(=O)Nc4ccc(CN5CCS(=O)(=O)CC5)cc4)cc3)cc2)[nH]1)c1ccccc1` [Example 6, Methyl N-[(1S)-2-[(2S)-2-[5-[4-[4-[[4-[(1,1-dioxo-1,4-thiazinan-4-yl)methyl]phenyl]carbamoyl]phenyl]phenyl]-1H-imidazol-2-yl]pyrrolidin-1-yl]-2-oxo-1-phenyl-ethyl]carbamate], the IC50 in assay [1] (read-out: HCV IC50 Elisa 1a) is 33.3 nM; in assay [1] (setting [3]) it was 33.1 nM; in assay [2] (read-out: HCV IC50 1b Replicon) it was 0.04 nM; in assay [2] (setting [4]), 0.0417 nM.

In the case of `COC(=O)N[C@@H](C(=O)N1CCC[C@H]1c1ncc(-c2ccc(-c3ccc(C(=O)Nc4ccc(CN5CCS(=O)(=O)CC5)cc4)cc3)cc2)[nH]1)c1ccccc1` [Example 7, Methyl N-[(1R)-2-[(2S)-2-[5-[4-[4-[[4-[(1,1-dioxo-1,4-thiazinan-4-yl)methyl]phenyl]carbamoyl]phenyl]phenyl]-1H-imidazol-2-yl]pyrrolidin-1-yl]-2-oxo-1-phenyl-ethyl]carbamate], the IC50 was 32 nM in assay [1] (read-out: HCV IC50 Elisa 1a), 32.4 nM in assay [1] (setting [3]), 0.05 nM in assay [2] (read-out: HCV IC50 1b Replicon) and 0.0468 nM in assay [2] (setting [4]).

`CCN(CC)[C@@H](C(=O)N1CCC[C@H]1c1ncc(-c2ccc(-c3ccc(C(=O)Nc4ccc(CN5CCS(=O)(=O)CC5)cc4)cc3)cc2)[nH]1)c1ccccc1` [Example 8, 4-[4-[2-[(2S)-1-[(2R)-2-(diethylamino)-2-phenyl-acetyl]pyrrolidin-2-yl]-1H-imidazol-5-yl]phenyl]-N-[4-[(1,1-dioxo-1,4-thiazinan-4-yl)methyl]phenyl]benzamide]: the IC50 in assay [1] (read-out: HCV IC50 Elisa 1a) was 4.75 nM; in assay [1] (setting [3]) it was 4.79 nM; in assay [2] (read-out: HCV IC50 1b Replicon) it was 0.05 nM; in assay [2] (setting [4]) it was 0.0468 nM.

For the molecule `CN(C)[C@@H](C(=O)N1CCC[C@H]1c1ncc(-c2ccc(-c3ccc(C(=O)Nc4ccc(CN5CCS(=O)(=O)CC5)cc4)cc3)cc2)[nH]1)c1ccccc1` [Example 9, 4-[4-[2-[(2S)-1-[(2R)-2-(dimethylamino)-2-phenyl-acetyl]pyrrolidin-2-yl]-1H-imidazol-5-yl]phenyl]-N-[4-[(1,1-dioxo-1,4-thiazinan-4-yl)methyl]phenyl]benzamide], the IC50 is 13.2 nM in assay [1] (read-out: HCV IC50 Elisa 1a), 13.2 nM in assay [1] (setting [3]), 0.1 nM in assay [2] (read-out: HCV IC50 1b Replicon) and 0.1 nM in assay [2] (setting [4]).

As for `COC(=O)N[C@@H](CC(C)C)C(=O)N1CCC[C@H]1c1ncc(-c2ccc(-c3ccc(C(=O)Nc4ccc(CN5CCS(=O)(=O)CC5)cc4)cc3)cc2)[nH]1` [Example 14, Methyl N-[(1S)-1-[(2S)-2-[5-[4-[4-[[4-[(1,1-dioxo-1,4-thiazinan-4-yl)methyl]phenyl]carbamoyl]phenyl]phenyl]-1H-imidazol-2-yl]pyrrolidine-1-carbonyl]-3-methyl-butyl]carbamate], the IC50 was 15.7 nM in assay [1] (read-out: HCV IC50 Elisa 1a), 15.8 nM in assay [1] (setting [3]), 0.36 nM in assay [2] (read-out: HCV IC50 1b Replicon) and 0.355 nM in assay [2] (setting [4]).

As to `CC[C@H](C)[C@H](NC(=O)OC)C(=O)N1CCC[C@H]1c1ncc(-c2ccc(-c3ccc(C(=O)Nc4ccc(CN5CCS(=O)(=O)CC5)cc4)cc3)cc2)[nH]1` [Example 16, Methyl N-[(1S,2S)-1-[(2S)-2-[5-[4-[4-[[4-[(1,1-dioxo-1,4-thiazinan-4-yl)methyl]phenyl]carbamoyl]phenyl]phenyl]-1H-imidazol-2-yl]pyrrolidine-1-carbonyl]-2-methyl-butyl]carbamate], the IC50 in assay [1] (read-out: HCV IC50 Elisa 1a) is 8.39 nM; in assay [1] (setting [3]), 8.32 nM; in assay [2] (read-out: HCV IC50 1b Replicon), 0.13 nM; in assay [2] (setting [4]), 0.132 nM.

With `COC(=O)N[C@H](C(=O)N1CCC[C@@H]1c1ncc(-c2ccc(-c3ccc(C(=O)Nc4ccc(CN5CCS(=O)(=O)CC5)cc4)cc3)cc2)[nH]1)C(C)C` [Example 20, Methyl N-[(1S)-1-[(2R)-2-[5-[4-[4-[[4-[(1,1-dioxo-1,4-thiazinan-4-yl)methyl]phenyl]carbamoyl]phenyl]phenyl]-1H-imidazol-2-yl]pyrrolidine-1-carbonyl]-2-methyl-propyl]carbamate], the IC50 in assay [1] (read-out: HCV IC50 Elisa 1a) is 1470 nM; in assay [1] (setting [3]) it was 1480 nM; in assay [2] (read-out: HCV IC50 1b Replicon), 319 nM; in assay [2] (setting [4]), 316 nM.

For the molecule `CCCS(=O)(=O)N1CCN(Cc2ccc(NC(=O)c3ccc(-c4ccc(-c5cnc([C@@H]6CCCN6C(=O)[C@@H](NC(=O)OC)C(C)C)[nH]5)cc4)cc3)cc2)CC1` [Example 40, Methyl N-[(1S)-2-methyl-1-[(2S)-2-[5-[4-[4-[[4-[(4-propylsulfonylpiperazin-1-yl)methyl]phenyl]carbamoyl]phenyl]phenyl]-1H-imidazol-2-yl]pyrrolidine-1-carbonyl]propyl]carbamate], the IC50 in assay [1] (read-out: HCV IC50 Elisa 1a) is 42.6 nM; in assay [1] (setting [3]), 42.7 nM; in assay [2] (read-out: HCV IC50 1b Replicon) it was 0.1 nM; in assay [2] (setting [4]) it was 0.1 nM.

Turning to `COC(=O)N[C@H](C(=O)N1CCOC[C@H]1c1ncc(-c2ccc(-c3ccc(C(=O)Nc4ccc(CN5CCS(=O)(=O)CC5)cc4)cc3)cc2)[nH]1)c1ccccc1` [Example 47, Methyl N-[(1S)-2-[(3R)-3-[5-[4-[4-[[4-[(1,1-dioxo-1,4-thiazinan-4-yl)methyl]phenyl]carbamoyl]phenyl]phenyl]-1H-imidazol-2-yl]morpholin-4-yl]-2-oxo-1-phenyl-ethyl]carbamate], the IC50 in assay [1] (read-out: HCV IC50 Elisa 1a) was 73.3 nM; in assay [1] (setting [3]), 74.1 nM; in assay [2] (read-out: HCV IC50 1b Replicon) it was 0.28 nM; in assay [2] (setting [4]) it was 0.275 nM.

On to `COC(=O)N[C@H](C(=O)N1CCC[C@H]1c1ncc(-c2ccc(-c3ccc(C(=O)Nc4ccc(CN5CCS(=O)(=O)CC5)cc4)cc3)c(C)c2)[nH]1)C(C)C` [Example 54, Methyl N-[(1S)-1-[(2S)-2-[5-[4-[4-[[4-[(1,1-dioxo-1,4-thiazinan-4-yl)methyl]phenyl]carbamoyl]phenyl]-3-methyl-phenyl]-1H-imidazol-2-yl]pyrrolidine-1-carbonyl]-2-methyl-propyl]carbamate], for which the IC50 in assay [1] (read-out: HCV IC50 Elisa 1a) is 9.38 nM; in assay [1] (setting [3]) it was 9.33 nM; in assay [2] (read-out: HCV IC50 1b Replicon), 0.21 nM; in assay [2] (setting [4]), 0.209 nM.
